For 24 compounds, T/C results are on record in PubChem BioAssay AID328 (DTP/NCI, 2004).

The assay relates to BDF1 mice, P388 leukemia ip, median survival T/C. Description: NCI In Vivo Anticancer Drug Screen. Data for tumor model P388 Leukemia (intraperitoneal) in B6D2F1 (BDF1) mice. The settings on record: endpoint: median survival time, higher = longer survival. The procedure, abridged:
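Steps: implant the tumour, treat one group with compound and another with vehicle, record survival, then divide treated by control.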

Setting [1] is: dose: 100.0 mg/kg/injection, schedule: Q01DX001 (ip), vehicle: saline sonified.
Where [2] appears, read: dose: 200.0 mg/kg/injection, schedule: Q01DX001 (ip), vehicle: saline sonified.
Where [3] appears, read: dose: 50.0 mg/kg/injection, schedule: Q01DX009 (ip), vehicle: Klucel (hydroxypropylcellulose) (HPC).
Setting [4] is: dose: 100.0 mg/kg/injection, schedule: Q01DX009 (ip), vehicle: Klucel (hydroxypropylcellulose) (HPC).
[5] abbreviates: dose: 100.0 mg/kg/injection, schedule: Q04DX003 (ip), vehicle: saline with Tween-80.
Where [6] appears, read: dose: 200.0 mg/kg/injection, schedule: Q04DX003 (ip), vehicle: saline with Tween-80.
Where [7] appears, read: dose: 400.0 mg/kg/injection, schedule: Q04DX003 (ip), vehicle: saline with Tween-80.
[8] abbreviates: dose: 50.0 mg/kg/injection, schedule: Q01DX009 (ip), vehicle: saline with Tween-80.
[9] abbreviates: dose: 100.0 mg/kg/injection, schedule: Q01DX009 (ip), vehicle: saline with Tween-80.
Where [10] appears, read: dose: 200.0 mg/kg/injection, schedule: Q01DX009 (ip), vehicle: saline with Tween-80.
Where [11] appears, read: dose: 25.0 mg/kg/injection, schedule: Q01DX009 (ip), vehicle: saline with Tween-80.
[12] abbreviates: dose: 75.0 mg/kg/injection, schedule: Q01DX009 (ip), vehicle: saline with Tween-80.
Where [13] appears, read: dose: 150.0 mg/kg/injection, schedule: Q01DX009 (ip), vehicle: saline with Tween-80.
[14] abbreviates: dose: 400.0 mg/kg/injection, schedule: Q01DX009 (ip), vehicle: saline with Tween-80.
The mark [15] stands for this setting: dose: 100.0 mg/kg/injection, schedule: Q04DX003 (ip), vehicle: saline sonified.
Where [16] appears, read: dose: 200.0 mg/kg/injection, schedule: Q04DX003 (ip), vehicle: saline sonified.
Where [17] appears, read: dose: 300.0 mg/kg/injection, schedule: Q01DX009 (ip), vehicle: saline with Tween-80.

Where “and” joins values, the source holds several entries; their conditions need not be identical. Equal entries are not always repeated. Toxic doses and inconclusive results are not listed.

As for `O=C(NCCCl)OCC(F)(F)F`, the T/C (dose: 50.0 mg/kg/injection, schedule: Q01DX005 (ip), vehicle: Klucel (hydroxypropylcellulose) (HPC)) was 113 % of control; the T/C (dose: 100.0 mg/kg/injection, schedule: Q01DX005 (ip), vehicle: Klucel (hydroxypropylcellulose) (HPC)) was 97 % of control; the T/C (dose: 200.0 mg/kg/injection, schedule: Q01DX005 (ip), vehicle: Klucel (hydroxypropylcellulose) (HPC)) is 108 % of control.

With `O=C1OCC2SC(c3ccccc3)NC12` (stereo unspecified), the T/C reads like this: under setting [1], 95 % of control; under setting [2], 113 % of control; (dose: 400.0 mg/kg/injection, schedule: Q01DX001 (ip), vehicle: saline sonified) 95 % of control.

In the case of `CNC=O`, the T/C is 100 % of control (dose: 7.5 mg/kg/injection, schedule: Q01DX010 (ip), vehicle: saline); 104 % of control and 109 % of control (dose: 15.0 mg/kg/injection, schedule: Q01DX010 (ip), vehicle: saline); 104 % of control and 118 % of control (dose: 30.0 mg/kg/injection, schedule: Q01DX010 (ip), vehicle: saline); 109 % of control and 113 % of control (dose: 60.0 mg/kg/injection, schedule: Q01DX010 (ip), vehicle: saline); 154 % of control (dose: 300.0 mg/kg/injection, schedule: Q01DX010 (ip), vehicle: saline); 154 % of control (dose: 455.0 mg/kg/injection, schedule: Q01DX010 (ip), vehicle: saline). The T/C (dose: 680.0 mg/kg/injection, schedule: Q01DX010 (ip), vehicle: saline) was 91 % of control.

In the case of `COC1OC(COS(=O)(=O)c2ccc(C)cc2)C2OC(C)(C)OC12` (stereo unspecified), the T/C under setting [3] was 104 % of control; the T/C under setting [4] is 90 % of control; the T/C (dose: 400.0 mg/kg/injection, schedule: Q01DX009 (ip), vehicle: Klucel (hydroxypropylcellulose) (HPC)) was 90 % of control.

As to `CCOC(=O)C(=CN1CCOCC1)C(=O)OCC`, the T/C is, setting by setting: under setting [5], 100 % of control; under setting [6], 100 % of control; under setting [7], 109 % of control.

As for `O=C(CN1CCOCC1)Nc1cccc(C(F)(F)F)c1`, the T/C by setting is: under setting [5], 86 % of control; under setting [6], 86 % of control; under setting [7], 109 % of control.

Turning to `CN(C1=NS(=O)(=O)N=C(N(C)c2ccccc2)O1)c1ccccc1`, the T/C by setting is: (dose: 25.0 mg/kg/injection, schedule: Q01DX009 (ip), vehicle: Klucel (hydroxypropylcellulose) (HPC)) 122 % of control; under setting [3], 102 % of control; under setting [8], 89 % of control; under setting [4], 115 % of control; under setting [9], 99 % of control; (dose: 200.0 mg/kg/injection, schedule: Q01DX009 (ip), vehicle: Klucel (hydroxypropylcellulose) (HPC)) 105 % of control.

On to `O=C(/C=C/c1ccc(OCc2ccccc2)cc1)c1ccc(Br)cc1`, for which the T/C reads like this: under setting [8], 91 % of control; under setting [9], 86 % of control; under setting [10], 87 % of control.

Consider `COc1ccc(S(=O)(=O)Nc2c([N+](=O)[O-])cc([N+](=O)[O-])c3ccccc23)cc1`, for which the T/C by setting is: under setting [11], 102 % of control; under setting [8], 100 % of control.

Take `S=C(c1ccco1)N1CCOCC1`: the T/C was 100 % of control (dose: 37.5 mg/kg/injection, schedule: Q01DX009 (ip), vehicle: saline with Tween-80); 104 % of control under setting [12]; 118 % of control under setting [13].

Consider `O=C1NC(=O)N(c2ccccc2)C(=O)/C1=C/c1ccccc1`, for which the T/C is, setting by setting: (dose: 50.0 mg/kg/injection, schedule: Q01DX001 (ip), vehicle: saline sonified) 110 % of control; under setting [1], 105 % of control; under setting [2], 100 % of control.

On to `CNc1ccc([N+](=O)[O-])cc1C(=O)OC`, for which the T/C is 104 % of control under setting [9] and 96 % of control under setting [10].

Consider `COc1ccc(C(C#N)Nc2ccccc2)cc1` (stereo unspecified), for which the T/C reads like this: under setting [9], 105 % of control; under setting [5], 109 % of control; under setting [10], 110 % of control; under setting [6], 100 % of control; under setting [14], 95 % of control; under setting [7], 109 % of control.

On to `CSc1ccc(NC(=O)C(O)C(O)C(O)C(O)CO)cc1` (stereo unspecified), for which the T/C under setting [12] was 100 % of control; the T/C under setting [15] is 104 % of control; the T/C under setting [13] was 100 % of control; the T/C under setting [16] is 104 % of control; the T/C under setting [17] was 100 % of control; the T/C (dose: 400.0 mg/kg/injection, schedule: Q04DX003 (ip), vehicle: saline sonified) is 104 % of control.

For the compound `Clc1nc(NCc2ccccc2)c2cn[nH]c2n1`, the T/C under setting [11] is 91 % of control, the T/C under setting [8] is 91 % of control and the T/C under setting [9] was 91 % of control.

Regarding `C=CCCCCCCCCCCCCCCCC` (tested in a mixture with another compound), the T/C (dose: 50.0 mg/kg/injection, schedule: Q01DX009 (ip), vehicle: other) is 113 % of control.

With `C[C@@H]1CC[C@@]2(NC1)O[C@H]1C[C@H]3[C@@H]4CC=C5C[C@@H](O)CC[C@]5(C)[C@H]4CC[C@]3(C)[C@H]1[C@@H]2C`, the T/C was 100 % of control (dose: 50.0 mg/kg/injection, schedule: Q04DX003 (ip), vehicle: Klucel (hydroxypropylcellulose) (HPC)); 110 % of control (dose: 50.0 mg/kg/injection, schedule: Q04DX003 (ip), vehicle: saline sonified); 86 % of control (dose: 88.0 mg/kg/injection, schedule: Q01DX009 (ip), vehicle: saline with Tween-80); 109 % of control (dose: 100.0 mg/kg/injection, schedule: Q04DX003 (ip), vehicle: Klucel (hydroxypropylcellulose) (HPC)); 100 % of control under setting [15]; 118 % of control (dose: 132.0 mg/kg/injection, schedule: Q01DX009 (ip), vehicle: saline with Tween-80). Further, the T/C is 104 % of control (dose: 200.0 mg/kg/injection, schedule: Q04DX003 (ip), vehicle: Klucel (hydroxypropylcellulose) (HPC)); 105 % of control under setting [16]; 95 % of control under setting [17].

As for `Nc1ncnc2c1ncn2C1CCCO1` (stereo unspecified), the T/C by setting is: under setting [8], 100 % of control; under setting [9], 109 % of control; (dose: 100.0 mg/kg/injection, schedule: Q04DX003 (ip), vehicle: saline) 100 % of control; under setting [10], 109 % of control; (dose: 200.0 mg/kg/injection, schedule: Q04DX003 (ip), vehicle: saline) 95 % of control.

For the compound `COc1cc(NCCN2CCN(CCNc3cc(OC)cc4cccnc34)CC2)c2ncccc2c1`, the T/C is 113 % of control under setting [8], 110 % of control under setting [9] and 94 % of control under setting [10].

On to `CC1(C)N=C(N)N=C(N)N1c1ccc(CCCCc2ccc(Cl)cc2Cl)cc1`, for which the T/C (dose: 4.0 mg/kg/injection, schedule: Q01DX009 (ip), vehicle: saline) is 118 % of control; the T/C (dose: 25.0 mg/kg/injection, schedule: Q01DX002 (ip), vehicle: saline) is 91 % of control; the T/C (dose: 50.0 mg/kg/injection, schedule: Q01DX002 (ip), vehicle: saline) was 103 % of control.

Turning to `O=C(Nc1ccc(Cc2ccc(NC(=O)Nc3nc4ccccc4s3)cc2)cc1)Nc1nc2ccccc2s1`, the T/C was 94 % of control under setting [8], 89 % of control under setting [9] and 100 % of control under setting [10].

Take `CC#CCOCC(CCl)OC(=O)Nc1ccccc1` (stereo unspecified): the T/C is 100 % of control under setting [9]; 120 % of control under setting [5]; 112 % of control under setting [10]; 110 % of control under setting [6]; 108 % of control under setting [14]; 100 % of control under setting [7].

Take `CC(=O)CC(C)=O.CC(=O)CC(C)=O.Cc1c[nH]cn1.O=N[O-].[Co]`: the T/C by setting is: (dose: 100.0 mg/kg/injection, schedule: Q04DX002 (ip), vehicle: saline with Tween-80) 107 % of control; (dose: 200.0 mg/kg/injection, schedule: Q04DX002 (ip), vehicle: saline with Tween-80) 124 % of control.

Take `C=CCN(CC=C)c1ccc(N(CC)CC)cc1`: the T/C is 87 % of control (dose: 100.0 mg/kg/injection, schedule: Q01DX001 (ip), vehicle: Klucel (hydroxypropylcellulose) (HPC)); 95 % of control (dose: 200.0 mg/kg/injection, schedule: Q01DX001 (ip), vehicle: Klucel (hydroxypropylcellulose) (HPC)); 100 % of control (dose: 400.0 mg/kg/injection, schedule: Q01DX001 (ip), vehicle: Klucel (hydroxypropylcellulose) (HPC)).
